From patent publication US10488418B2, “Fluorescence assay for intestinal permeability” (THE REGENTS OF THE UNIVERSITY OF CALIFORNIA, priority 2014, dated 2019)
Like-named read-outs stand apart in the source and are kept apart here.

Assays:
[1] = human, in vivo
Procedure: (§2) Intestinal permeability test in humans: Subjects consumed 0.5-1.0 L water the night before and in the morning about 3 hour prior to sample collection. The first morning urine was voided. No food or other beverages were consumed prior to the test. Permeability probes were ingested after baseline urine collection. […] Test subjects were permitted to drink water or coffee as desired. Light snacks were permitted after the fourth hour. Urine volumes were recorded and 50 mL was retained for analysis.
(§3) Sample collection: Freshly collected urine (50 ml) was first centrifuged 2500 RCF at 4° C. for 10 minutes.
(§4) Supernatants were pipetted 40 μL/well in duplicate into plates (#3694, Corning, USA). Fluorescence (Exc/Em 450/580 nm) was read on a plate reader (Infinite M200Pro, Tecan, Switzerland). Concentration was calculated as mg/mL and multiplied by total urine volume in mL, giving total mg in urine. The mg in urine/mg ingested×100 yielded % ingested.
(§5) The SPE column was cleaned with MeOH and H2O between runs. […] Data was corrected for a 9% loss. After SPE, samples were directed to the various assays.
(§6) Viologen method for lactulose and mannitol permeability in humans: Ready-made assay 96 well plates were prepared (#3694, Corning, 199 USA). A 4× premix buffer was prepared (0.1 M sodium phosphate, 0.1 M HEPES, 0.04% Triton X-100, pH 7.4). To this was added HPTS (16 μM) and quencher (1.6 mM 4,4′oBBV or 2.0 mM 4,4′oMBV), each 4 times above final concentration. The different viologen concentrations were chosen to achieve similar extents of quenching in the absence of sugar (about 20% of free fluorophore) while preserving a strong signal to noise (S/N). Blank wells were given 10 μl 4× premix buffer with neither HPTS nor viologen. Some wells received 16 μM HPTS without quencher to determine maximum possible fluorescence. All other wells received 10 μl of the complete 4× premix. Those premixes containing 4,4′oBBV were continuously vortexed because the mixture is a suspension. Plates were sealed with plate tape and stored at 4° C. until use.
(§7) Upon running an assay, 30 μl of standards or samples were pipetted into wells. Final concentrations were 4 μM HPTS and 400 μM 4,4′oBBV or 500 μM 4,4′oMBV. Urine samples were placed in both blank wells (for individual sample blanking) and wells containing complete 4× premix. Plates were put on a shaker for 1 hr, RT. During this time, sugars interacted with the HPTS-viologen complex, liberating HPTS into solution. Plates were then centrifuged at 2500 RCF for 10 minutes at room temperature to pull down remaining HPTS-quencher particulate matter. Plate tape was removed and fluorescence read on a plate reader (Tecan M-200 Infinite, gain 70, 404/535 nm). The height was adjusted to read from the top of the solution (18 mm). […] A Marquardt 4-parameter curve fit was used. Sugar concentrations were calculated as g/mL and multiplied by total urine volume in mL, giving total amount of urine in grams. Values were corrected for percentage recovery from the C18 SPE step. The g in urine/g ingested×100 yielded % ingested. Lactulose measurements were confirmed by enzyme assay. Mannitol measurements were confirmed by HPLC-Evaporative Light Scattering Detector (HPLC-ELSD) using a C8 pre-column and Prevail Carbohydrate ES 5μ 250×4.6 mm column (Grace Davison 224 Discovery Sciences, Ill., USA) with 80:20 MeCN/H2O.

[2] = Intestinal permeability test in humans (urine excretion of ingested probes)
Procedure: as §2, §3, §4, §5, §6, §7

[3] = Viologen based fluorescence assay for sugars in urine with 4,4′oBBV and HPTS; design: species or system human
Description: (§1) A Marquardt 4-parameter curve fit was used. […] The g in urine/g ingested×100 yielded % ingested. Lactulose measurements were confirmed by enzyme assay.
Statistics: The lower limit of detection (LLOD) was defined as the analyte concentration in the urine sample at which fluorescence intensity in the assay was 3 standard deviations above the mean baseline fluorescence. Similarly, the lower limit of quantification (LLOQ) was defined as 10 standard deviations above the mean baseline fluorescence. Coefficient of variation percent (CV %) was determined by averaging sets of samples each measured in 4 wells. Results are given as mean±SEM.

[4] = Quenching of HPTS fluorescence by boronic acid viologen in absence of sugar
Procedure: as §1
The term “Initial quench” as used herein refers to HPTS fluorescence in presence of quencher and absence of sugar (maximum achievable quench) as a percent of maximum possible fluorescence with 4 μM free HPTS in absence of any quencher. The term “LLOD” as used herein refers to analyte concentration in original urine sample (as opposed to final concentration in the assay) at which the fluorescence signal equals or exceeds 3 standard deviations above mean assay noise level. The term “LLOQ” as used herein refers to analyte concentration in original urine sample at which the fluorescence signal equals or exceeds 10 standard deviations above mean assay noise level. The term “range” as used herein refers to urine concentrations found in healthy volunteers before transforming data to % ingested. The term “Mean±SEM” as used herein refers to standard mean plus or minus standard error of mean as generally understood in medical science. The term “CV %” as used herein refers to intra-assay coefficient of variation for samples.

[5] = viologen assay system, viologen not specified

With OC[C@@H](O)[C@@H](O)[C@H](O)[C@H](O)CO [Mannitol, mannitol] the “time of return to baseline in urine after ingestion” value [1] was “about 6 hours”, the “Typical values for humans (urine concentration)” value (“Typical values for humans” for short) ([2]; human urine) was 1 to 10 mM and the “RANGE (urine concentrations found in healthy volunteers)” value ([2]; human urine after oral 50 mg riboflavin, 5 g mannitol or 10 g lactulose, mean±SEM, sugars measured with 4,4′oBBV) was 3929 ± 972 µM.

For OC[C@H]1O[C@@](CO)(O[C@H]2O[C@H](CO)[C@@H](O)[C@H](O)[C@H]2O)[C@@H](O)[C@@H]1O [sucrose], the “interference with the viologen based method” value [3] was “Neither sucrose nor sucralose interfere” and the fluorescence signal [3, 5] was “no signal”.

For OC[C@H]1O[C@H](O[C@]2(CCl)O[C@H](CCl)[C@@H](O)[C@@H]2O)[C@H](O)[C@@H](O)[C@H]1Cl [sucralose], the “interference with the viologen based method” value [3] was “Neither sucrose nor sucralose interfere”.

For Cc1cc2nc3c(=O)[nH]c(=O)nc-3n(C[C@H](O)[C@H](O)[C@H](O)CO)c2cc1C [Riboflavin, riboflavin], the “Typical values for humans” value [1] was 0.01 to 0.1 mM and the “time of return to baseline in urine after ingestion” value [1] was “about 6 hours”.

For O=C(CO)[C@@H](O[C@H]1O[C@H](CO)[C@@H](O)[C@H](O)[C@H]1O)[C@H](O)[C@H](O)CO [turanose], the “fluorescence as percent of fructose” value [3, 5] was ~30% and the “fluorescence as percent of the lactulose fluorescence” value [3, 5] was ~20%.

With OC[C@H]1O[C@@H](O[C@H]2[C@H](O)[C@@H](O)C(O)O[C@@H]2CO)[C@H](O)[C@@H](O)[C@H]1O (stereo partly shown) [lactose] the “response of 4,4′oBBV to sugar” value ([3]; 10 mM sugar) was “essentially no response”.

In the case of OB(O)c1ccccc1C[n+]1ccc(-c2cc[n+](Cc3ccccc3B(O)O)cc2)cc1 [4,4′oBBV, 1,1′-bis(2-boronobenzyl)-4,4′-bipyridinium], the Relative selectivity ([3]; 4,4′oBBV) is reported as “lactulose>fructose>galactose”.

For OC[C@H]1O[C@@H](O[C@@H]2[C@@H](CO)OC(O)(CO)[C@H]2O)[C@H](O)[C@@H](O)[C@H]1O (mixture of isomers) [Lactulose, lactulose], the “signal stronger than fructose” value [3, 5] was ~20% and the “Typical values for humans” value [1] was 0.2 to 1.5 mM.

With OB(O)c1ccccc1C[n+]1ccc(-c2cc[n+](Cc3ccccc3)cc2)cc1 [4,4′oMBV, 1-(2-boronobenzyl)-1′-benzyl-4,4′-bipyridinium] the “Initial Quench % Max” value ([4]; HPTS fluorescence with quencher and no sugar, as percent of 4 μM free HPTS, final 400 μM 4,4′oBBV or 500 μM 4,4′oMBV) was 16% and the “higher concentration required than 4,4′oBBV to achieve the same extent of quenching” value ([4]; HPTS quenching, 0 μM sugar) was “about 20%”.
